According to paper PMC11369081, “Molecular mechanism of prolactin-releasing peptide recognition and signaling via its G protein-coupled receptor” (Cell Discovery, 2024):
Peptide text beside a SMILES is read from it.

How the values were obtained:
Assay type in all cases: cell-based
[1] = biological target: T1, PrRPR D302A (Homo sapiens, UniProt P49683, D302A); assay: BRET2 Gq dissociation, D302A; settings: D302A (6.59), Gq-coupling, AD293 cells; mean ± S.E.M., n = 3; P <0.0001 vs WT; read-out: BRET2 pEC50 (converted)
T1 construct: Flag; expressed in transfected cells; host or cells: AD293 cells
T1 sequence (P49683 whole entry D302A): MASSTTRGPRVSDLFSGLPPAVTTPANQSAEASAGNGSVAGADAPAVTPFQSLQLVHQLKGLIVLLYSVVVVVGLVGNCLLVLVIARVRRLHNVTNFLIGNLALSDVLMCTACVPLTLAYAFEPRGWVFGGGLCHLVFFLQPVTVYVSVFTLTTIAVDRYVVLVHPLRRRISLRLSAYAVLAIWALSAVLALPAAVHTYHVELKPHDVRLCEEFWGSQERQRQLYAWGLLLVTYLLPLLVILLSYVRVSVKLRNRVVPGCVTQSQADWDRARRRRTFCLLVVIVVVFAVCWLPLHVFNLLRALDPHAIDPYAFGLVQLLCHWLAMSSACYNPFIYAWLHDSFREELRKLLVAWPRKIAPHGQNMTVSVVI
Procedure: (§1) AD293 cells (Agilent) were propagated in Dulbecco’s Modified Eagle Medium (DMEM, Thermo Fisher Scientific), enriched with 10% fetal bovine serum (FBS, Thermo Fisher Scientific), and maintained at 37 °C in a 5% CO2 environment. Cells were then seeded in 6-well dishes at a density of 130,000–150,000 cells per mL and allowed to incubate overnight. On the next day, cells were transfected with plasmids at a 1:1:1:1 ratio for receptor:Gα-RLuc8:Gβ:Gγ-GFP2[52]. PEI MAX 40 K (BIOHUB) was utilized to form complex with the plasmids at a ratio of 3 µL PEI per µg of plasmids, in OptiMEM (Gibco-Thermo Fisher Scientific) at a concentration of 10 ng plasmids per µL OptiMEM. After 24 h of incubation, the culture was harvested by centrifugation with PBS. The cell suspension was then allocated into a white 384-well plate at a volume of 30 µL per well, followed by the addition of 10 µL of freshly prepared 50 µM coelenterazine 400a (Yeasen). […] Plates were subsequently read in a BioTek Synergy H1 microplate reader (BioTek) equipped with 395 nm (RLuc8-coelenterazine 400a) and 510 nm (GFP2) emission filters. BRET2 ratios were calculated as the ratio of the GFP2 emission to RLuc8 emission. […]
(§2) Supplementary Fig. S4 | Effects of mutations in the ligand-binding pocket and G protein intereface of Gq coupled PrRPR by BRET2 assay. […] BRET2 assay signals were measured after stimulation with PrRP20. […]

[2] = biological target: T2, PrRPR V145A (Homo sapiens, UniProt P49683, V145A); assay: BRET2 Gq dissociation, V145A; settings: V145A (3.36), Gq-coupling, AD293 cells; mean ± S.E.M., n = 3; P <0.0001 vs WT; read-out: BRET2 pEC50 (converted)
T2 construct: expressed in transfected cells; host or cells: AD293 cells
T2 sequence (P49683 whole entry V145A): as the sequence (P49683 whole entry D302A) above, with V145A, A302D counted along it
Procedure: as §1, §2

[3] = biological target: T3, PrRPR Q317A (Homo sapiens, UniProt P49683, Q317A); assay: BRET2 Gq dissociation, Q317A; settings: Q317A (7.35), Gq-coupling, AD293 cells; mean ± S.E.M., n = 3; P <0.0001 vs WT; read-out: BRET2 pEC50 (converted)
T3 construct: Flag; expressed in transfected cells; host or cells: AD293 cells
T3 sequence (P49683 whole entry Q317A): as the sequence (P49683 whole entry D302A) above, with A302D, Q317A counted along it
Procedure: as §1, §2

[4] = biological target: T4, PrRPR L294A (Homo sapiens, UniProt P49683, L294A); assay: BRET2 Gq dissociation, L294A; settings: L294A (6.51), Gq-coupling, AD293 cells; mean ± S.E.M., n = 3; P <0.0001 vs WT; read-out: BRET2 pEC50 (converted)
T4 construct: Flag; expressed in transfected cells; host or cells: AD293 cells
T4 sequence (P49683 whole entry L294A): as the sequence (P49683 whole entry D302A) above, with L294A, A302D counted along it
Procedure: as §1, §2

[5] = biological target: T5, PrRPR T233A (Homo sapiens, UniProt P49683, T233A); assay: BRET2 Gi dissociation, T233A; settings: T233A (5.46), Gi-coupling, AD293 cells; mean ± S.E.M., n = 3; P <0.0001 vs WT; read-out: BRET2 pEC50 (converted)
T5 construct: Flag; expressed in transfected cells; host or cells: AD293 cells
T5 sequence (P49683 whole entry T233A): as the sequence (P49683 whole entry D302A) above, with T233A, A302D counted along it
Procedure: (§3) AD293 cells (Agilent) were propagated in Dulbecco’s Modified Eagle Medium (DMEM, Thermo Fisher Scientific), enriched with 10% fetal bovine serum (FBS, Thermo Fisher Scientific), and maintained at 37 °C in a 5% CO2 environment. Cells were then seeded in 6-well dishes at a density of 130,000–150,000 cells per mL and allowed to incubate overnight. On the next day, cells were transfected with plasmids at a 1:1:1:1 ratio for receptor:Gα-RLuc8:Gβ:Gγ-GFP2[52]. PEI MAX 40 K (BIOHUB) was utilized to form complex with the plasmids at a ratio of 3 µL PEI per µg of plasmids, in OptiMEM (Gibco-Thermo Fisher Scientific) at a concentration of 10 ng plasmids per µL OptiMEM. After 24 h of incubation, the culture was harvested by centrifugation with PBS. The cell suspension was then allocated into a white 384-well plate at a volume of 30 µL per well, followed by the addition of 10 µL of freshly prepared 50 µM coelenterazine 400a (Yeasen). Following a 15-min equilibration period, cells were treated with 10 µL of ligand for an additional 5 min. Plates were subsequently read in a BioTek Synergy H1 microplate reader (BioTek) equipped with 395 nm (RLuc8-coelenterazine 400a) and 510 nm (GFP2) emission filters. BRET2 ratios were calculated as the ratio of the GFP2 emission to RLuc8 emission. Data were normalized to the baseline response of the ligand. […]

[6] = biological target: T6, PrRPR V208A (Homo sapiens, UniProt P49683, V208A); assay: BRET2 Gq dissociation, V208A; settings: V208A (ECL2), Gq-coupling, AD293 cells; mean ± S.E.M., n = 3; P 0.0347 vs WT; read-out: BRET2 pEC50 (converted)
T6 construct: expressed in transfected cells; host or cells: AD293 cells
T6 sequence (P49683 whole entry V208A): as the sequence (P49683 whole entry D302A) above, with V208A, A302D counted along it
Procedure: as §1, §2

[7] = biological target: T7, PrRPR P142A (Homo sapiens, UniProt P49683, P142A); assay: BRET2 Gi dissociation, P142A; settings: P142A (3.33), Gi-coupling, AD293 cells; mean ± S.E.M., n = 3; P 0.0035 vs WT; read-out: BRET2 pEC50 (converted)
T7 construct: expressed in transfected cells; host or cells: AD293 cells
T7 sequence (P49683 whole entry P142A): as the sequence (P49683 whole entry D302A) above, with P142A, A302D counted along it
Procedure: as §3

[8] = biological target: T8, PrRPR T117A (Homo sapiens, UniProt P49683, T117A); assay: BRET2 Gi dissociation, T117A; settings: T117A (2.61), Gi-coupling, AD293 cells; mean ± S.E.M., n = 3; P <0.0001 vs WT; read-out: BRET2 pEC50 (converted)
T8 construct: expressed in transfected cells; host or cells: AD293 cells
T8 sequence (P49683 whole entry T117A): as the sequence (P49683 whole entry D302A) above, with T117A, A302D counted along it
Procedure: as §3

[9] = biological target: T9, PrRPR C113A (Homo sapiens, UniProt P49683, C113A); assay: BRET2 Gi dissociation, C113A; settings: C113A (2.57), Gi-coupling, AD293 cells; mean ± S.E.M., n = 3; P 0.0008 vs WT; read-out: BRET2 pEC50 (converted)
T9 construct: expressed in transfected cells; host or cells: AD293 cells
T9 sequence (P49683 whole entry C113A): as the sequence (P49683 whole entry D302A) above, with C113A, A302D counted along it
Procedure: as §3

[10] = biological target: T10, PrRPR WT (Homo sapiens, UniProt P49683); assay: BRET2 Gi dissociation, WT; settings: Gi-coupling, AD293 cells
T10 construct: expressed in transfected cells; host or cells: AD293 cells
T10 sequence (P49683 1-370): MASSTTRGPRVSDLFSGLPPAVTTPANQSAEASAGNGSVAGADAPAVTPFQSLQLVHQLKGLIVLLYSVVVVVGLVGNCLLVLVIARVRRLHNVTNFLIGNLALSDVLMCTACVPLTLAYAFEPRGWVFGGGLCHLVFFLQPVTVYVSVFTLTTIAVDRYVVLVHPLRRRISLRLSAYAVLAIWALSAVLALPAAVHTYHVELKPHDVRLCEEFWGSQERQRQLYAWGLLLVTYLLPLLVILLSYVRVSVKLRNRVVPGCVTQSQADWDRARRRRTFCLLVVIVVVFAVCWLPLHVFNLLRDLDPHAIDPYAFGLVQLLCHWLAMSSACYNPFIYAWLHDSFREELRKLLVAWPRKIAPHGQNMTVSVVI
Procedure: as §3

EC50 [1]: 151 nM
EC50 [2]: 4.79 nM
EC50 [3]: 309 nM
EC50 [4]: 5.62 nM
EC50 [5]: 18.6 nM
EC50 [6]: 2.45 nM
EC50 [7]: 6.46 nM
EC50 [8]: 3470 nM
EC50 [9]: 7.08 nM
BRET2 span ([10]; WT (reference for normalisation), n = 3): 100.00 %WT
EC50 ([10]; WT, 5 min ligand, mean ± S.E.M., n = 3 (triplicates), read-out: BRET2 pEC50 (converted)): 1.86 nM
SMILES: CC[C@H](C)[C@H](NC(=O)CNC(=O)[C@H](CCCNC(=N)N)NC(=O)[C@H](CO)NC(=O)[C@H](C)NC(=O)[C@H](Cc1ccc(O)cc1)NC(=O)[C@H](Cc1c[nH]c2ccccc12)NC(=O)[C@H](C)NC(=O)[C@@H]1CCCN1C(=O)[C@H](CC(N)=O)NC(=O)[C@@H](NC(=O)[C@H](CC(=O)O)NC(=O)[C@@H]1CCCN1C(=O)[C@@H](N)[C@@H](C)O)[C@@H](C)CC)C(=O)N[C@@H](CCCNC(=N)N)C(=O)N1CCC[C@H]1C(=O)N[C@H](C(=O)NCC(=O)N[C@@H](CCCNC(=N)N)C(=O)N[C@@H](Cc1ccccc1)C(N)=O)C(C)C [PrRP20] (H-TPDINPAWYASRGIRPVGRF-NH2)
